The source of these data is PubChem BioAssay AID1117361 (Southern Research Institute, 2015).

This experiment deals with Protein Tat (Human immunodeficiency virus type 1 group M subtype B (isolate HXB2)) (UniProt P04608). The experiment in a line: HIV-1 Tat–TAR interaction blockers – biochemical, fluorescence polarization, FAM-labeled TAR RNA, counter-screen for Vif-APOBEC3G degradation inhibitor project, dose response (AID 1117361). The note with it: Tat-TAR RNA binding. A general note: In fluorescence polarisation assays a small probe gives low polarisation when free and higher when bound to something large.
Protein Tat (Human immunodeficiency virus type 1 group M subtype B (isolate HXB2)), sequence (P04608 whole entry, looked up): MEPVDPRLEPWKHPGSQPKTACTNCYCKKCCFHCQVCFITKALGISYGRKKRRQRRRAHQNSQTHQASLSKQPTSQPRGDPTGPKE
Consider `Cc1cc(C(=O)CSc2nnc(-c3ccco3)o2)c(C)n1Cc1ccco1`, for which the IC50 is 4.41 µM.
Turning to `CCCCn1c(O)c(C(CC)=NCCN2CCCCC2)c(=O)[nH]c1=O`, the IC50 was 32.5 µM.
Consider `Oc1cc2c(cc1O)[C@H]1c3ccc(O)c(O)c3OC[C@@]1(O)C2`, for which the IC50 was 15.7 µM.
For the compound `CN1C(=O)/C(=C/c2cccn2-c2ccc3ccccc3c2)C(=O)NC1=S`, the IC50 was 44.5 µM.
As for `CNc1ccc(Br)cc(C(=O)/C=C/c2ccc(OC)cc2)c1=O`, the IC50 is 9.15 µM.
Under `CCN1C(=O)/C(=C\c2ccco2)C(C(=O)OC)=C1C` stands 81.8 µM; under `O=C(N/N=C/C(Br)=C/c1ccccc1)c1cc(-c2ccco2)[nH]n1`, 8.53 µM.
For `CN(C)c1ccc2cc(S(=O)(=O)O)cc(O)c2c1` the value was 90 µM; for `Cn1cccc1/C=C1/C(=O)NC(=O)N(Cc2ccccc2)C1=O`, 67 µM.
For `CCn1c2ccccc2c2cc(NC(=O)c3ccccc3[N+](=O)[O-])ccc21` the value was 43.8 µM; for `CC1(C)N([O-])c2cc([N+](=O)[O-])ccc2[N+]1=O`, 61.3 µM; for `COCCNC(=O)Nc1ccc2nc(-c3ccco3)c(-c3ccco3)nc2c1`, 2.17 µM.
For `Cc1ccc(C)n1-c1cccc(C(=O)O)c1`, the IC50 was 2.07 µM.
For `Cc1ccc(C=C2C(Cl)=C(Cl)C(Cl)=C2Cl)cc1` the value was 4.67 µM; for `CCC1C/C(=C/c2ccco2)C(=O)/C(=C/c2ccco2)C1` (centres undefined), 12.6 µM.
For `Oc1ccc(/C=N/NC2=NCCCCC2)c(O)c1`, the 50% inhibitory concentration (IC50) was 25.1 µM.
For `CCOc1ccc(-n2c(Cc3cc(=O)[nH]c(=O)[nH]3)nnc2SC(C)C(=O)OC)cc1` (centres undefined) the value was 92.9 µM.
Regarding `C=CCN=c1scc(-c2ccco2)n1/N=C/c1ccc(O)c(O)c1O`, the IC50 was 35.4 µM.
Take `Cc1ccc(C)c2[nH]c(=O)c(CN(Cc3ccc4c(c3)OCO4)Cc3nnnn3Cc3ccco3)cc12`: the 50% inhibitory concentration (IC50) is 39.6 µM.
In the case of `O=C1NC(=O)N(c2ccccc2)C(=O)/C1=C\c1ccc([N+](=O)[O-])s1`, the IC50 was 10.7 µM.
As for `CCNc1ccc(Br)cc(C(=O)/C=C/c2ccc(Cl)cc2)c1=O`, the IC50 is 12.5 µM.
For `CCOC(=O)C1=C(N)n2c(s/c(=C/c3ccco3)c2=O)=C(C(=O)OC)C1c1ccco1` (centres undefined) the value was 9.78 µM; for `O=C1NC(=O)N(Cc2ccc(F)cc2)C(=O)/C1=C\C=C\c1ccco1`, 42.3 µM; for `CCc1ccc(N2C(=O)NC(=O)/C(=C\C=C\c3ccco3)C2=O)cc1`, 45 µM.
`CC1(C)OC(=O)C(=C2CCCN2)C(=O)O1`: the IC50 is 0.882 µM.
For `COc1ccc(N=C2NC(=O)/C(=C\C=C\c3ccco3)S2)cc1` the value was 6.32 µM.
For `Cc1c(Br)c(O)c(Br)c2sc(=O)oc12` the value was 25.3 µM.
As for `O=C(O)C1Nc2c(C(=O)N3CCOCC3)cccc2C2C=CCC12` (centres undefined), the IC50 is 8.99 µM.
For `CC[C@H](C)/C=C(C)/C=C/C1=CC2=CC(=O)[C@]3(C)OC(=O)[C@@H](C(C)=O)[C@@H]3C2=CO1`, the IC50 is 14.4 µM.
Under `O=C(NCCCO)Nc1ccc2nc(-c3ccco3)c(-c3ccco3)nc2c1` stands 2.01 µM; under `Cn1cnnc1SCC(=O)Nc1ncc([N+](=O)[O-])s1`, 58.2 µM.
Under `COc1ccc(O)c(N)c1` stands 5.5 µM; under `CC(C)(CS(=O)(=O)[O-])NC(=O)CC[N+](C)(C)CCO`, 17.5 µM; under `O=C1CC(/C=C/c2ccco2)=Nc2ccccc2N1`, 6.84 µM.
Under `COC/C=C/C1=CC2=CC(=O)C(C)(OC(=O)c3ccco3)C(=O)C2=CO1` (centres undefined) stands 7.47 µM.
As for `COC(=O)c1ccccc1-c1c2ccc(=N)cc-2oc2cc(N)ccc12`, the IC50 was < 0.19 µM.
Consider `NC(CO)C(=O)NNCc1ccc(O)c(O)c1O` (centres undefined), for which the IC50 is 8.84 µM.
For `COc1cccc(=O)c2c(C)n(-c3ccc(C(=O)O)cc3)c(C)c12` the value was 3.06 µM.
On to `CN1CCc2cccc3c2[C@H]1Cc1ccc(O)c(O)c1-3`, for which the IC50 was 19.1 µM.
Under `Cc1ccc(/C=C/C2=Cc3c(sc(NC(=O)CSc4n[nH]c(N)n4)c3C#N)C(C)(C)C2)o1` stands 3.04 µM.
`Cc1cc(-c2cc(-c3ccc(Cl)cc3)nc(N)c2C#N)co1`: the IC50 was 83.6 µM.
Under `COc1ccc(-c2cc(-c3ccco3)[nH]c(=O)c2C#N)cc1` stands 15.1 µM; under `CN(C)c1ccc(O)c2c1CC1CC3[C@@H](N(C)C)C(=O)C(C(N)=O)=C(O)[C@]3(O)C(=O)C1=C2O` (some centres undefined), 6.14 µM; under `CCC(=O)NNc1ncnc2ccccc12`, 44.5 µM.
For `COC(=O)C1=COC(C)C2CN3CCc4c([nH]c5ccccc45)C3CC12` (centres undefined) the value was 7.63 µM.
Under `Cc1ccc(C)n1-c1ccc(-c2nnc3n2CCCCC3)s1` stands 54.2 µM; under `O=C1CC(Nc2ccc(N3CCOCC3)cc2)C(=O)N1c1ccccc1F` (centres undefined), 12.9 µM; under `O=C1Cc2cccc(=O)c(O)c2C(=O)O1`, 87.7 µM.
On to `O=C(/C=C/c1ccco1)N(c1ccccn1)c1ccccn1`, for which the IC50 is 7.9 µM.
For the compound `O=C1c2sc3nc4n(c(=O)c3c2CCC1Br)CCCCC4` (centres undefined), the IC50 is 4.82 µM.
In the case of `O=C(O)CCc1ccc(S(=O)(=O)Nc2cc(C(F)(F)F)ccc2N2CCCC2)cc1`, the concentration for half-maximal inhibition (IC50) was 68.2 µM.
As for `CC(=O)NN1C(=O)/C(=C\c2ccc(Br)o2)SC1=S`, the IC50 is 4.82 µM.
Under `Cc1onc(-c2c(F)cccc2Cl)c1C(=O)Nc1nnc(C2CC2)s1` stands 60.7 µM; under `O=C(O)c1cccc(-n2cccc2/C=C/[N+](=O)[O-])c1`, 5.57 µM; under `S=c1[nH]nc(COc2ccc3c(c2)OCO3)n1-c1ccccc1`, 1.03 µM.
Regarding `Cc1sc2ncnc(SCc3ccco3)c2c1C`, the IC50 is 17.6 µM.
Under `CCOc1cccc(CNc2ccc(O)cc2)c1OCc1ccccc1Cl` stands 63 µM; under `COc1ccc(NC(=O)c2cc(-c3ccco3)nc3ccccc23)cc1S(=O)(=O)N1CCOCC1`, 19.3 µM; under `O=C(N/N=C/C=C/c1ccco1)c1cccs1`, 11.6 µM.
For `CCc1c(C)sc(NC(=O)OC)c1C(=O)N1CCCCC1` the value was 30.2 µM.
Turning to `O=C1/C(=C/C=C/c2ccco2)SC(=S)N1NS(=O)(=O)c1ccccc1`, the IC50 is 2.48 µM.
Under `CCOC(=O)C1CCCN(C(=O)c2ccc(CNc3c(N4CCC(C)CC4)c(=O)c3=O)cc2)C1` (centres undefined) stands 65.3 µM; under `CCC(C)C(NC(=O)[C@@H](NC(=O)c1ccccc1F)C(C)C)C(=O)OC` (some centres undefined), 30.7 µM.
For `Cc1ccc(-n2c(-c3cc(-c4ccco4)[nH]n3)n[nH]c2=S)c(Br)c1`, the concentration for half-maximal inhibition (IC50) was 6.09 µM.
With `COc1cccc(-c2cn3nc4c(nc3n2)CCCC4)c1`, the IC50 is 100 µM.
For `Cc1ccc(/C=C/C(=O)Nc2ncc(C)s2)o1` the value was 16 µM.
Under `Cc1cc(=O)c2c(O)c(O)ccc2o1` stands 47.4 µM; under `CC1CCN(Cc2c(O)ccc3c2O/C(=C\c2ccco2)C3=O)CC1`, 4.79 µM; under `COc1ccc(NC(=S)NCCc2ccccc2OC)c(OC)c1`, 13.7 µM.
Under `Clc1ccccc1N=Nc1ccccn1` stands 35 µM; under `O=C(O)CCCNc1cc(N2CCC3(CC2)OCCO3)c2noc3c2c1C(=O)c1ccccc1-3`, 3.59 µM.
In the case of `O=C1NC(=S)SC1=C1CCCC1`, the IC50 is 6.59 µM.
For `Cc1cc(C(=O)Nc2sc3c(c2C#N)CCCCC3)cs1`, the IC50 is 23.6 µM.
For `O=C(Nc1ccc(Br)cn1)c1coc(=O)c(Br)c1` the value was 79.5 µM.

Usually IC50 stands for the point on the concentration scale where inhibition reaches its midpoint.
